Source: PubChem BioAssay (NCI)
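Grown in 96-well plates, cells were treated for 48 hours with each compound at five concentrations. Insufficient inhibition: endpoint recorded as highest concentration tested. At the GI50, growth is halved. TGI denotes the concentration required for complete inhibition of growth.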

Experiments:
Assay in all cases: NCI-60 cell line screen, 48 h
ACHN renal = system: ACHN renal
MALME-3M melanoma = system: MALME-3M melanoma
U251 CNS = system: U251 CNS
HCC-2998 colon = system: HCC-2998 colon
OVCAR-3 ovarian = system: OVCAR-3 ovarian
COLO 205 colon = system: COLO 205 colon
SK-MEL-28 melanoma = system: SK-MEL-28 melanoma
NCI-H460 lung = system: NCI-H460 lung
EKVX NSCLC = system: EKVX NSCLC

Row | SMILES | TGI (ACHN renal) [µM] | TGI (MALME-3M melanoma) [µM] | TGI (U251 CNS) [µM] | TGI (HCC-2998 colon) [µM] | TGI (OVCAR-3 ovarian) [µM] | TGI (COLO 205 colon) [µM] | TGI (SK-MEL-28 melanoma) [µM] | TGI (NCI-H460 lung) [µM] | TGI (EKVX NSCLC) [µM] | GI50 (ACHN renal) [µM] | GI50 (MALME-3M melanoma) [µM] | GI50 (U251 CNS) [µM] | GI50 (HCC-2998 colon) [µM] | GI50 (OVCAR-3 ovarian) [µM] | GI50 (COLO 205 colon) [µM] | GI50 (SK-MEL-28 melanoma) [µM] | GI50 (NCI-H460 lung) [µM] | GI50 (EKVX NSCLC) [µM]
1 | COc1ccc(/C=C2/C[N+](C)(C)C/C(=C/c3ccc(OC)cc3)C2=O)cc1 | > 100 | 61.3 | > 63.9 | 31 | 98.5 | 40.8 | 18.6 | > 100 | > 100 | – | – | – | – | – | – | – | – | –
2 | Cc1cc(C)nc(Nc2nc3ccc([N+](=O)[O-])cc3[nH]2)n1 | > 100 | > 100 | > 100 | > 100 | > 100 | > 100 | > 100 | > 100 | > 100 | – | – | – | – | – | – | – | – | –
3 | COc1ccc2ccc([Se]c3ccc4ccc(OC)cc4c3)cc2c1 | > 100 | > 100 | 99.2 | > 100 | > 100 | > 100 | > 100 | > 100 | – | – | – | – | – | – | – | – | – | –
4 | O=S1(=O)C[C@@H](O)[C@H](O)CS1 | > 100 | > 100 | > 100 | > 100 | > 100 | > 100 | > 100 | > 100 | > 100 | – | – | – | – | – | – | – | – | –
5 | CC(=O)OCC1OC(n2c(=O)n(-c3ccccc3)c(=O)c3ccccc32)C(OC(C)=O)C(OC(C)=O)C1OC(C)=O (centres undefined) | > 100 | > 100 | > 100 | > 100 | > 100 | > 100 | > 100 | > 100 | > 100 | – | – | – | – | – | – | – | – | –
6 | CCOC(=O)CC1=CSC2=NCCN12 | > 100 | > 100 | > 100 | > 100 | > 100 | > 100 | > 100 | > 100 | > 100 | – | – | – | – | – | – | – | – | –
7 | O=C(O)C12C3CCCC1C2CC3 (centres undefined) | > 100 | > 100 | > 100 | – | > 100 | > 100 | > 100 | > 100 | > 100 | – | – | – | – | – | – | – | – | –
8 | CCOC(=O)C(=O)Nc1c(N(CC)CC)n2ccccc2nc1=O | > 100 | > 100 | > 100 | – | > 100 | > 100 | – | > 100 | > 100 | – | – | – | – | – | – | – | – | –
9 | CN(c1ccccc1)C(c1ccccc1)C(O)c1ccccc1 (centres undefined) | 54.4 | 31.4 | 33.2 | 38.8 | 32 | 30.1 | 41.7 | 36.2 | 62.7 | – | – | – | – | – | – | – | – | –
10 | c1ccc(N=C2c3ccccc3C3=NCCCN32)cc1 | > 100 | > 100 | > 100 | > 100 | > 100 | > 100 | > 100 | > 100 | > 100 | – | – | – | – | – | – | – | – | –
11 | O=C1C(=O)N(c2ccc(Cl)c(Cl)c2)C(=O)C(=O)C1c1nc2ccccc2o1 | > 100 | > 100 | 85.6 | > 100 | > 100 | > 100 | > 100 | > 100 | – | – | – | – | – | – | – | – | – | –
12 | CC(=O)/C=C/c1ccc(C2CC(C)=Nc3c(ccc4c3C(=O)c3ccccc3C4=O)N2)cc1 (centres undefined) | > 100 | > 100 | > 100 | > 100 | > 100 | > 100 | > 100 | > 100 | > 100 | – | – | – | – | – | – | – | – | –
13 | CCOC(=O)c1ccc(N2C(=O)/C(=C\OC)c3ccccc3C2=O)cc1 | > 100 | > 100 | > 100 | > 100 | > 100 | > 100 | > 100 | – | > 100 | – | – | – | – | – | – | – | – | –
14 | CC1(C)OCC(CO)(Nc2nc(N3CC3)nc(N3CC3)n2)CO1 | 13.9 | 42.1 | 31.7 | 36.3 | 49.4 | 60.9 | 53 | 29 | 90.8 | – | – | – | – | – | – | – | – | –
15 | ON=C1CCC(c2ccccc2)CC1 (centres undefined) | > 100 | > 100 | > 100 | > 100 | > 100 | > 100 | > 100 | > 100 | > 100 | – | – | – | – | – | – | – | – | –
16 | CC(C(=O)Oc1ccc2ccccc2c1-c1c(O)ccc2ccccc12)c1ccccc1 (centres undefined) | 26.6 | 34.8 | 28.7 | 28.9 | 26.6 | 33.4 | 29.2 | 27.6 | 37.3 | – | – | – | – | – | – | – | – | –
17 | O=C([CH-]C(=O)c1ccccc1)c1ccccc1.O=C([CH-]C(=O)c1ccccc1)c1ccccc1.[Nd+3].[OH-].[OH3+] | 30.1 | 53.2 | 40.3 | 26.6 | 26.6 | 31.4 | 44.8 | 25.3 | 43.8 | 10.1 | 12.4 | 7.13 | 9.11 | 8.31 | 13.9 | 11.5 | 6.18 | 9.99
18 | CCOC(=O)C(C)c1cc(C2(C)OCCO2)c(C)o1 (centres undefined) | > 100 | > 100 | > 100 | > 100 | > 100 | > 100 | – | > 100 | > 100 | – | – | – | – | – | – | – | – | –
